Laboratory results published in PubChem BioAssay AID256 (DTP/NCI, 2004).
Several values for one entry are separate records, joined by “and”; a condition that tells them apart may be missing. Equal entries are not always repeated. Inconclusive results and toxic doses are left out.

Test system: CD2F1 mice, L1210 leukemia ip, survival T/C
Experiment: NCI In Vivo Anticancer Drug Screen. Data for tumor model L1210 Leukemia (intraperitoneal) in CD2F1 (CDF1) mice
Conditions: higher = longer survival
Outline: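 Compound-dosed mice with transplantable tumor versus matched vehicle controls; endpoint ratio T/C reported.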

[1] = endpoint: mean survival time, dose: 100.0 mg/kg/injection, schedule: Q01DX009 (ip), vehicle: saline
[2] = endpoint: mean survival time, dose: 100.0 mg/kg/injection, schedule: Q04DX002 (ip), vehicle: saline with Tween-80
[3] = endpoint: mean survival time, dose: 100.0 mg/kg/injection, schedule: Q04DX003 (ip), vehicle: saline with Tween-80
[4] = endpoint: mean survival time, dose: 200.0 mg/kg/injection, schedule: Q04DX002 (ip), vehicle: saline with Tween-80
[5] = endpoint: mean survival time, dose: 200.0 mg/kg/injection, schedule: Q04DX003 (ip), vehicle: saline with Tween-80
[6] = endpoint: mean survival time, dose: 400.0 mg/kg/injection, schedule: Q04DX002 (ip), vehicle: saline with Tween-80
[7] = endpoint: mean survival time, dose: 400.0 mg/kg/injection, schedule: Q04DX003 (ip), vehicle: saline with Tween-80
[8] = endpoint: mean survival time, dose: 100.0 mg/kg/injection, schedule: Q01DX009 (ip), vehicle: saline with Tween-80
[9] = endpoint: mean survival time, dose: 200.0 mg/kg/injection, schedule: Q01DX009 (ip), vehicle: saline with Tween-80
[10] = endpoint: mean survival time, dose: 50.0 mg/kg/injection, schedule: Q04DX002 (ip), vehicle: saline with Tween-80
[11] = endpoint: mean survival time, dose: 100.0 mg/kg/injection, schedule: Q01DX001 (ip), vehicle: saline with Tween-80
[12] = endpoint: mean survival time, dose: 200.0 mg/kg/injection, schedule: Q01DX001 (ip), vehicle: saline with Tween-80

COCC(O)Cn1ccnc1[N+](=O)[O-] (stereo unspecified)
T/C (endpoint: mean survival time, dose: 12.5 mg/kg/injection, schedule: Q01DX009 (ip), vehicle: suspension in saline): 102 % of control
T/C (endpoint: mean survival time, dose: 12.5 mg/kg/injection, schedule: Q01DX009 (ip), vehicle: water): 100 % of control
T/C (endpoint: mean survival time, dose: 25.0 mg/kg/injection, schedule: Q01DX009 (ip), vehicle: suspension in saline): 104 % of control
T/C (endpoint: mean survival time, dose: 25.0 mg/kg/injection, schedule: Q01DX009 (ip), vehicle: water): 101 % of control
T/C (endpoint: mean survival time, dose: 50.0 mg/kg/injection, schedule: Q01DX009 (ip), vehicle: suspension in saline): 104 % of control
T/C (endpoint: mean survival time, dose: 50.0 mg/kg/injection, schedule: Q01DX009 (ip), vehicle: water): 103 % of control
T/C (endpoint: mean survival time, dose: 100.0 mg/kg/injection, schedule: Q01DX009 (ip), vehicle: suspension in saline): 107 % of control
T/C (endpoint: mean survival time, dose: 100.0 mg/kg/injection, schedule: Q01DX009 (ip), vehicle: water): 97 % of control
T/C (endpoint: mean survival time, dose: 200.0 mg/kg/injection, schedule: Q01DX009 (ip), vehicle: suspension in saline): 104 % of control
T/C (endpoint: mean survival time, dose: 200.0 mg/kg/injection, schedule: Q01DX009 (ip), vehicle: water): 103 % of control
T/C (endpoint: mean survival time, dose: 400.0 mg/kg/injection, schedule: Q01DX009 (ip), vehicle: suspension in saline): 96 % of control
T/C (endpoint: mean survival time, dose: 400.0 mg/kg/injection, schedule: Q01DX009 (ip), vehicle: water): 101 % of control

O=CC(O)C(O)C(O)C(O)CO (stereo unspecified)
T/C [1]: 93 % of control
T/C (endpoint: mean survival time, dose: 200.0 mg/kg/injection, schedule: Q01DX009 (ip), vehicle: saline): 91 % of control
T/C (endpoint: mean survival time, dose: 0.2 grams/kg/injection, schedule: Q03DX003 (ip), vehicle: water): 100 % of control
T/C (endpoint: mean survival time, dose: 400.0 mg/kg/injection, schedule: Q01DX009 (ip), vehicle: saline): 95 % of control
T/C (endpoint: mean survival time, dose: 0.4 grams/kg/injection, schedule: Q03DX003 (ip), vehicle: water): 108 % of control
T/C (endpoint: mean survival time, dose: 0.8 grams/kg/injection, schedule: Q03DX003 (ip), vehicle: water): 107 % of control
T/C (endpoint: mean survival time, dose: 1.5 grams/kg/injection, schedule: Q03DX003 (ip), vehicle: water): 100 % of control
T/C (endpoint: mean survival time, dose: 3.0 grams/kg/injection, schedule: Q03DX003 (ip), vehicle: water): 101 % of control
T/C (endpoint: mean survival time, dose: 6.0 grams/kg/injection, schedule: Q03DX003 (ip), vehicle: water): 100 % of control
T/C (endpoint: mean survival time, dose: 12.0 grams/kg/injection, schedule: Q03DX003 (ip), vehicle: water): 106 % of control
T/C (endpoint: median survival time, dose: 75.0 mg/kg/injection, schedule: Q01DX009 (ip), vehicle: saline): 101 % of control
T/C (endpoint: median survival time, dose: 150.0 mg/kg/injection, schedule: Q01DX009 (ip), vehicle: saline): 101 % of control
T/C (endpoint: median survival time, dose: 300.0 mg/kg/injection, schedule: Q01DX009 (ip), vehicle: saline): 100 % of control
T/C (endpoint: median survival time, dose: 600.0 mg/kg/injection, schedule: Q01DX009 (ip), vehicle: saline): 100 % of control
T/C (endpoint: median survival time, dose: 1200.0 mg/kg/injection, schedule: Q01DX009 (ip), vehicle: saline): 102 % of control

COc1cc(OC)c(/C=C/c2ccc3ccccc3[n+]2C)c(OC)c1
T/C (endpoint: mean survival time, dose: 0.31 mg/kg/injection, schedule: Q01DX009 (ip), vehicle: saline): 103 % of control
T/C (endpoint: mean survival time, dose: 0.62 mg/kg/injection, schedule: Q01DX009 (ip), vehicle: saline): 114 % of control
T/C (endpoint: mean survival time, dose: 1.25 mg/kg/injection, schedule: Q01DX009 (ip), vehicle: saline): 121 % of control

CC(=O)Nc1ccc(C(=O)c2ccc(C(=O)O)cc2)cc1
T/C [2]: 92 % of control and 98 % of control
T/C [3]: 95 % of control and 100 % of control
T/C [4]: 93 % of control and 96 % of control
T/C [5]: 104 % of control and 109 % of control
T/C [6]: 96 % of control and 107 % of control
T/C [7]: 114 % of control and 104 % of control

CN(C)CCOc1cccc(Br)c1
T/C (endpoint: mean survival time, dose: 25.0 mg/kg/injection, schedule: Q04DX003 (ip), vehicle: saline): 100 % of control
T/C (endpoint: mean survival time, dose: 50.0 mg/kg/injection, schedule: Q04DX003 (ip), vehicle: saline): 100 % of control
T/C (endpoint: mean survival time, dose: 100.0 mg/kg/injection, schedule: Q04DX003 (ip), vehicle: saline): 100 % of control

CCOC(=O)Nc1cc(N)c2ncc(-c3ccc(Cl)cc3)nc2n1
T/C [3]: 91 % of control
T/C [5]: 91 % of control
T/C [7]: 95 % of control

CC(C)N(CCCC#N)C(C)C
T/C (endpoint: mean survival time, dose: 50.0 mg/kg/injection, schedule: Q01DX009 (ip), vehicle: saline): 96 % of control
T/C [1]: 95 % of control
T/C [3]: 97 % of control
T/C [5]: 89 % of control

CCCCCCCCOc1nccc(N)n1
T/C (endpoint: mean survival time, dose: 18.75 mg/kg/injection, schedule: Q01DX001 (ip), vehicle: saline with Tween-80): 105 % of control
T/C (endpoint: mean survival time, dose: 37.5 mg/kg/injection, schedule: Q01DX001 (ip), vehicle: saline with Tween-80): 100 % of control
T/C (endpoint: mean survival time, dose: 75.0 mg/kg/injection, schedule: Q01DX001 (ip), vehicle: saline with Tween-80): 94 % of control

O=C(O)/C=C\C(=O)OCc1ccc(Cl)cc1Cl
T/C [8]: 106 % of control
T/C [3]: 91 % of control
T/C [5]: 101 % of control
T/C [7]: 95 % of control

O=C(Nc1ccc(F)cc1)Nc1ccc(Cl)cc1
T/C [8]: 97 % of control
T/C [9]: 100 % of control
T/C (endpoint: mean survival time, dose: 400.0 mg/kg/injection, schedule: Q01DX009 (ip), vehicle: saline with Tween-80): 103 % of control

O=S(=O)(O)Sc1ncnc2nc[nH]c12
T/C (endpoint: mean survival time, dose: 10.0 mg/kg/injection, schedule: Q01DX009 (ip), vehicle: saline): 117 % of control
T/C (endpoint: mean survival time, dose: 20.0 mg/kg/injection, schedule: Q01DX009 (ip), vehicle: saline): 112 % of control
T/C (endpoint: mean survival time, dose: 320.0 mg/kg/injection, schedule: Q01DX009 (ip), vehicle: saline): 107 % of control
T/C (endpoint: median survival time, dose: 37.5 mg/kg/injection, schedule: Q04DX003 (ip), vehicle: saline): 119 % of control
T/C (endpoint: median survival time, dose: 100.0 mg/kg/injection, schedule: Q01DX009 (ip), vehicle: saline): 182 % of control
T/C (endpoint: median survival time, dose: 200.0 mg/kg/injection, schedule: Q01DX009 (ip), vehicle: saline): 154 % of control
T/C (endpoint: median survival time, dose: 300.0 mg/kg/injection, schedule: Q04DX003 (ip), vehicle: saline): 166 % of control

c1ccc(C2OCC3(CO2)COC(c2ccccc2)OC3)cc1 (stereo unspecified)
T/C [8]: 88 % of control
T/C [3]: 94 % of control
T/C [9]: 91 % of control
T/C [5]: 92 % of control
T/C [7]: 92 % of control

Nc1ncnc2c1[nH]c(=S)n2C1OC(CO)C(O)C1O (stereo unspecified)
T/C [2]: 107 % of control
T/C [4]: 103 % of control
T/C [6]: 100 % of control

COc1ccc2c(c1O)C1CCCCC13CCN(C)C3C2 (stereo unspecified)
T/C (endpoint: mean survival time, dose: 25.0 mg/kg/injection, schedule: Q04DX002 (ip), vehicle: saline with Tween-80): 96 % of control
T/C [10]: 96 % of control
T/C [11]: 110 % of control
T/C [2]: 93 % of control and 97 % of control
T/C [12]: 98 % of control
T/C (endpoint: mean survival time, dose: 400.0 mg/kg/injection, schedule: Q01DX001 (ip), vehicle: saline with Tween-80): 100 % of control

Cc1sc(Cc2ccccc2)nc1-c1ccc(N=Cc2ccc(N(CCOS(C)(=O)=O)CCOS(C)(=O)=O)cc2)cc1
T/C (endpoint: mean survival time, dose: 25.0 mg/kg/injection, schedule: Q01DX009 (ip), vehicle: saline with Tween-80): 107 % of control
T/C (endpoint: mean survival time, dose: 50.0 mg/kg/injection, schedule: Q01DX009 (ip), vehicle: saline with Tween-80): 93 % of control

CC1(Br)CCOC1=O (stereo unspecified)
T/C [10]: 98 % of control
T/C [2]: 98 % of control
T/C [4]: 111 % of control

O=C(Nc1cccnc1)c1ccc([N+](=O)[O-])s1
T/C (endpoint: mean survival time, dose: 50.0 mg/kg/injection, schedule: Q01DX005 (ip), vehicle: saline + alcohol): 111 % of control
T/C (endpoint: mean survival time, dose: 50.0 mg/kg/injection, schedule: Q01DX005 (ip), vehicle: saline): 110 % of control
T/C (endpoint: mean survival time, dose: 100.0 mg/kg/injection, schedule: Q01DX005 (ip), vehicle: saline + alcohol): 121 % of control
T/C (endpoint: mean survival time, dose: 100.0 mg/kg/injection, schedule: Q01DX005 (ip), vehicle: saline): 160 % of control
T/C (endpoint: mean survival time, dose: 200.0 mg/kg/injection, schedule: Q01DX005 (ip), vehicle: saline + alcohol): 107 % of control
T/C (endpoint: mean survival time, dose: 200.0 mg/kg/injection, schedule: Q01DX005 (ip), vehicle: saline): 122 % of control
T/C (endpoint: median survival time, dose: 25.0 mg/kg/injection, schedule: Q01DX005 (ip), vehicle: saline): 119 % of control
T/C (endpoint: median survival time, dose: 36.0 mg/kg/injection, schedule: Q01DX005 (ip), vehicle: saline): 115 % of control
T/C (endpoint: median survival time, dose: 50.0 mg/kg/injection, schedule: Q01DX005 (ip), vehicle: saline): 116 % of control
T/C (endpoint: median survival time, dose: 60.0 mg/kg/injection, schedule: Q01DX005 (ip), vehicle: saline): 121 % of control

CCCCC(C)C1(CCC)NC(C)(C)CC(C)O1 (stereo unspecified)
T/C [11]: 97 % of control
T/C [12]: 101 % of control

CC(=O)N(Cc1ccccn1)N=O
T/C (endpoint: mean survival time, dose: 75.0 mg/kg/injection, schedule: Q01DX001 (ip), vehicle: water): 112 % of control
T/C (endpoint: mean survival time, dose: 150.0 mg/kg/injection, schedule: Q01DX001 (ip), vehicle: water): 122 % of control
